These results are taken from patent publication US11058713B2, “Treatment and diagnosis of ocular surface disorders” (Advaite LLC., priority 2017, dated 2021).

Series [1] has as its target T1, oncostatin M (OSM) (Mus musculus, UniProt P53347).
T1 construct: In murine NETs, OSM is present in great abundance; endogenous in cells; host or cells: murine neutrophil extracellular traps (NETs)
T1 sequence (P53347 23-206): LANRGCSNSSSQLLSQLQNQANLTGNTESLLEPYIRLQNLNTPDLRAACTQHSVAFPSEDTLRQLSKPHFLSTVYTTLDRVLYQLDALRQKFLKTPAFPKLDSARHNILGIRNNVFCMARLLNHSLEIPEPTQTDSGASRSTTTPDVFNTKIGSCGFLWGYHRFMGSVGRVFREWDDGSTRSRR
Nature of the series: OSM levels in murine NETs. The series is classed as binding. The settings on record: 614.67±95.73 pg/mL without heparin. As for the experimental part: (§1) The molecular component of Neutrophil Extracellular Traps (NETs) that may cause epitheliopathy was investigated. […] OSM was present in abundance in mucocellular aggregates (MCA) collected from definite oGVHD patients. OSM is a heparin binding protein, therefore incubation with heparin or Neutralizing antibody (NAb) reduced recombinant OSM protein levels (FIG. 15).

Series [2] has as its system mucocellular aggregates from a patient with severe tear deficient DED. The series is described as follows: Ex vivo dissolution of mucocellular aggregates (Hematoxylin-Eosin and Sytox Green). Further details: species or system human. The settings on record: sub-anticoagulant heparin 100 IU/ml; substantially intact with culture media (RPMI) only. As for the experimental part:
The extracellular structures (green strands) were dissolved when treated with sub-anticoagulant heparin (100 IU/ml), but remained substantially intact when treated with only the culture media (RPMI).

The next series relates to stimulated neutrophils. The series is described as follows: Stimulated neutrophils: inflammatory products (green staining strands), photographs. The series is classed as cell-based.
In series [3] the test system is immortalized meibomian gland epithelial cells. Nature of the series: Meibomian gland cell differentiation, lipid accumulation by LipidTOX staining. Format: cell-based, human. The source says: Meibomian gland disease is a conspicuous feature of oGVHD. As compared to normal meibomian gland, patients with oGVHD have extensive atrophy or truncation of meibomian glands. […] To determine the effect of NETs on meibomian glands, immortalized meibomian gland epithelial cells were cultivated and differentiated. Lipid accumulation was detected using LipidTOX staining. […] The reduction in lipid accumulation with NETs was abrogated with addition of NGAL NAb (21.21±0.83 A.U). […] The reduction of lipid accumulation with rNGAL was abrogated with addition of NGAL NAb (17.82±0.43 A.U) and heparin (15.66±1.72 A.U).

In series [4] the test system is neutrophil inflammatory products. Nature of the series: Kinetic assay of neutrophil inflammatory products, stimulation by 1 nM PMA. The settings on record: FIGS. 9A and 9B. The series is classed as cell-based.
The next series concerns mouse corneas. The series is described as follows: Recombinant OSM protein induced corneal epithelial disease. Format: in vivo. The settings on record: for corneal fluorescein staining at Day 5: application of OSM, OSM incubated with heparin or OSM incubated with OSM NAb. From the text:
Excessive amounts of OSM can cause corneal epithelial disease similar to that seen in DED patients. […] OSM inhibitors used can be selected from neutralizing antibodies, neutralizing peptides and small molecules and other gene based approaches. These OSM inhibitors can be used independently as therapeutic proteins/peptides/small molecules for DED treatment.
In addition, whether OSM recombinant protein can produce epitheliopathy similar to NETs and whether reducing OSM levels using heparin or OSM NAb abrogates that effect was also investigated. […] These experiments indicate that NETs cause corneal epitheliopathy possibly due to presence of OSM and epitheliopathy can be prevented with heparin. To test this theory, a patient with oGVHD who had corneal and conjunctival epitheliopathy was treated with heparin eye drop (100 IU/mL) three times a day for four weeks.

The subject of series [5] is human corneal epithelial cells. Nature of the series: Scratch wound healing of confluent corneal epithelial cells. The series is classed as cell-based. The settings on record: anticoagulant dose heparin 1000 and 10,000 IU/ml; versus RPMI control and 100 IU/ml. On the procedure:
In this experiment human corneal epithelial cells were grown to confluence and scratch wounds were made.

In series [6] the test system is oncostatin M (OSM). Nature of the series: Recombinant OSM protein levels after incubation with heparin or NAb. Format: binding. The settings on record: FIG. 15. On the procedure:
as §1

Series [7] has as its system human corneal epithelial cells. The series is described as follows: Cytotoxicity assay (LDH). Format: cell-based.
The subject of another series is human MG cells. Nature of the series: Meibomian gland cell proliferation. The settings on record: KSFM medium with rNGAL; reduction with rNGAL on addition of NGAL NAb or heparin. The series is classed as cell-based. From the text: Next, the effect of NGAL on proliferation of human MG cells was investigated. […] FIG. 20. […] The reduction of MG cell proliferation with rNGAL was abrogated with addition of NGAL NAb and heparin.

The subject of a further series is murine corneas. The series is described as follows: Murine model of neutrophil product (NETs) induced corneal disease. The series is classed as in vivo. As for the experimental part: Neutrophil products (NETs) when applied to corneal surface induced epithelial disease and fluorescein staining. […] Protein levels of inflammatory cytokines were also determined (IL-lb and IP-10) using a Magpix platform.
Whether reducing OSM levels in naive NETs using heparin or OSM NAb abrogates NETs induced epitheliopathy in murine corneas was investigated. Naive NETs, heparinized NETs and OSM NAb incubated NETs was applied to naïve murine corneas for five consecutive days. […] At Day 5, corneas were excised and abundance of inflammatory cytokines (IL-1β, IL-6 and IP-10) were determined in lysates. […] FIG. 16.

Setting [8] is: DFM medium with rNGAL, rNGAL plus NGAL NAb or rNGAL plus heparin, DFM alone 24.92±1.21.
[9] abbreviates: Heparin addition to NETs, protein level, Magpix platform.

Entries after “also recorded” stand apart in the source; their conditions may differ.

For heparin, at oncostatin M (OSM) [1], the “OSM levels in heparinized NETs” value was 19.95 ± 0.00 pg/mL. Besides, the “extracellular structures (green strands) of mucocellular aggregates” value in [2] is on record as “dissolved”. The “neutrophil inflammatory products (green staining strands)” value in the series on stimulated neutrophils (heparin 0.01, 0.1, 1, 10 and 100 IU/mL, FIG. 5) is on record as “dose dependent fashion”. The “amount of inflammatory strands of neutrophils” value in the series with stimulated neutrophils (heparin at 100 IU/ml) is “almost completely”. Moreover, the “fluorescence intensity of LipidTox Green neutral lipid stain (accumulation of lipids)” value in [3] (DFM medium with NETs, heparinized NETs or NETs plus NGAL NAb, DFM alone 24.92±1.21, KSFM 6.93±0.57) is listed as 33.98±2.18 A.U; in [3] (setting [8]), 15.66±1.72 A.U. For the same molecule, in series [4], the “amount of neutrophil inflammatory products produced with stimulation by 1 nM PMA” value is “dose dependent reduction; also recorded: dose dependent manner”. Also, the “corneal fluorescein staining at Day 5” value with mouse corneas was found to be 1.20±0.20; in the series on murine corneas (naive NETs, heparinized NETs or OSM NAb incubated NETs applied to naïve murine corneas for five consecutive days) it was 0.80±0.49. For the same molecule, in the series with mouse corneas (heparin 100 IU/ml or neutralizing antibody added to recombinant OSM, FIG. 13), the “corneal fluorescein staining induced by OSM” value is “significantly reduced”. For the same molecule, the “Epithelial cell healing (scratch wounds)” value in [5] is reported as “significantly delayed”. For the same molecule, in the series with oncostatin M (OSM) [6], the “recombinant OSM protein levels” value was “reduced”. In addition, the LDH entry in [7] (anticoagulant dose heparin 1000 and 10,000 IU/ml, versus RPMI control and 100 IU/ml) is on record as “significantly higher”. In addition, the “human corneal epithelial cell cytotoxicity” value is on record as “causes human corneal epithelial cell cytotoxicity” in series [7] (anticoagulant dose of heparin (1000 and 10,000 IU/ml)); “does not cause cytotoxicity” in series [7] (sub-anticoagulant dose of heparin (100 IU/ml)). Also, the MG cell proliferation result with human MG cells was “abrogated”. The “epithelial disease and fluorescein staining” value in the series on murine corneas (Heparin (100 IU/ml) added to NETs applied to corneal surface) is listed as “significantly reduced”. Further, the “corneal abundance of IL-lb” value in the series on murine corneas (setting [9]) is reported as “significantly reduced”. Also, the “corneal abundance of IP-10” value in the series with murine corneas (setting [9]) was “significantly reduced”.
For the molecule Enoxaparin, in the series with stimulated neutrophils (Enoxaparin 10, 20, 40 and 80 μg/mL, FIG. 6), the “neutrophil inflammatory products (green staining strands)” value was “dose dependent fashion”. Also, the “inflammatory strands of neutrophils” value in the series on stimulated neutrophils (Enoxaparin at 80 μg/mL) was “almost completely”. The “amount of neutrophil inflammatory products produced with stimulation by 1 nM PMA” value in [4] is recorded as “dose dependent reduction; also recorded: dose dependent manner”.

B1: rNGAL: recombinant NGAL (neutrophil gelatinase-associated lipocalin) (protein, UniProt P80188 21-198, looked up)
Neutrophil …: QDSTSDLIPAPPLSKVPLQQNFQDNQFQGKWYVVGLAGNAILREDKDPQKMYATIYELKEDKSYNVTSVLFRKKKCDYWIRTFVPGCQPGEFTLGNIKSYPGLTSYLVRVVSTNYNQHAMVFFKKVSQNREYFKITLYGRTKELTSELKENFIRFSKSLGLPENHIVFPVPIDQCIDG
Take B1: in series [3] (setting [8]), the “fluorescence intensity of LipidTox Green neutral lipid stain (accumulation of lipids)” value was determined as 10.88±0.35 A.U. Further, the MG cell proliferation entry in the series on human MG cells was “significantly decreased”.

B2: OSM: OSM recombinant protein applied to mouse corneas (protein, UniProt P53347 25-206, looked up)
Oncostatin-M: NRGCSNSSSQLLSQLQNQANLTGNTESLLEPYIRLQNLNTPDLRAACTQHSVAFPSEDTLRQLSKPHFLSTVYTTLDRVLYQLDALRQKFLKTPAFPKLDSARHNILGIRNNVFCMARLLNHSLEIPEPTQTDSGASRSTTTPDVFNTKIGSCGFLWGYHRFMGSVGRVFREWDDGSTRSRR
For the molecule B2, the “corneal fluorescein staining at Day 5” value in the series on mouse corneas is given as 8.75±0.48.
